ChEMBL document CHEMBL3763020, “Tetramethylpyrazine improves the recovery of spinal cord injury via Akt/Nrf2/HO-1 pathway” (2016)
Calls of active or inactive are those of the source.

Key:
Rattus norvegicus [1] = experiment: Neuroprotective activity in Sprague-Dawley rat model of spinal cord injury assessed as decrease in IL1-beta levels in spinal cord tissue at 200 mg/kg, ip by ELISA; assay type: functional, organism-based
Rattus norvegicus [2] = experiment: Neuroprotective activity in Sprague-Dawley rat model of spinal cord injury assessed as decrease in IL1-beta levels in spinal cord tissue at 200 mg/kg, ip by ELISA in presence of 25 umol/kg of HO-1 inhibitor ZnPP; assay type: functional, organism-based
Rattus norvegicus [3] = experiment: Neuroprotective activity in Sprague-Dawley rat model of spinal cord injury assessed as decrease in IL1-beta levels in spinal cord tissue at 200 mg/kg, ip by ELISA in presence of Akt inhibitor LY294002; assay type: functional, organism-based
Rattus norvegicus [4] = experiment: Neuroprotective activity in Sprague-Dawley rat model of spinal cord injury assessed as decrease in TNF-alpha levels in spinal cord tissue at 200 mg/kg, ip by ELISA; assay type: functional, organism-based
Rattus norvegicus [5] = experiment: Neuroprotective activity in Sprague-Dawley rat model of spinal cord injury assessed as decrease in TNF-alpha levels in spinal cord tissue at 200 mg/kg, ip by ELISA in presence of 25 umol/kg of HO-1 inhibitor ZnPP; assay type: functional, organism-based
Rattus norvegicus [6] = experiment: Neuroprotective activity in Sprague-Dawley rat model of spinal cord injury assessed as decrease in TNF-alpha levels in spinal cord tissue at 200 mg/kg, ip by ELISA in presence of Akt inhibitor LY294002; assay type: functional, organism-based
Rattus norvegicus [7] = experiment: Neuroprotective activity in Sprague-Dawley rat model of spinal cord injury assessed as decrease in IL-18 levels in spinal cord tissue at 200 mg/kg, ip by ELISA; assay type: functional, organism-based
Rattus norvegicus [8] = experiment: Neuroprotective activity in Sprague-Dawley rat model of spinal cord injury assessed as decrease in IL-18 levels in spinal cord tissue at 200 mg/kg, ip by ELISA in presence of 25 umol/kg of HO-1 inhibitor ZnPP; assay type: functional, organism-based
Rattus norvegicus [9] = experiment: Neuroprotective activity in Sprague-Dawley rat model of spinal cord injury assessed as decrease in IL-18 levels in spinal cord tissue at 200 mg/kg, ip by ELISA in presence of Akt inhibitor LY294002; assay type: functional, organism-based
Rattus norvegicus [10] = experiment: Neuroprotective activity in Sprague-Dawley rat model of spinal cord injury assessed as accumulation at G0/G1 phase at 200 mg/kg, ip by TUNEL staining-based flow cytometric analysis (reference value: 34.1 %); assay type: functional
Rattus norvegicus [11] = experiment: Neuroprotective activity in Sprague-Dawley rat model of spinal cord injury assessed as accumulation at G0/G1 phase at 200 mg/kg, ip by TUNEL staining-based flow cytometric analysis in presence of 25 umol/kg of HO-1 inhibitor ZnPP (reference value: 34.1 %); assay type: functional
Rattus norvegicus [12] = experiment: Neuroprotective activity in Sprague-Dawley rat model of spinal cord injury assessed as accumulation at G0/G1 phase at 200 mg/kg, ip by TUNEL staining-based flow cytometric analysis in presence of Akt inhibitor LY294002 (reference value: 34.1 %); assay type: functional
Rattus norvegicus [13] = experiment: Neuroprotective activity in Sprague-Dawley rat model of spinal cord injury assessed as decrease in activated caspase-3 level at 200 mg/kg, ip; assay type: functional, organism-based
Rattus norvegicus [14] = experiment: Neuroprotective activity in Sprague-Dawley rat model of spinal cord injury assessed as decrease in activated caspase-3 level at 200 mg/kg, ip in presence of 25 umol/kg of HO-1 inhibitor ZnPP; assay type: functional, organism-based
Rattus norvegicus [15] = experiment: Neuroprotective activity in Sprague-Dawley rat model of spinal cord injury assessed as decrease in activated caspase-3 level at 200 mg/kg, ip in presence of Akt inhibitor LY294002; assay type: functional, organism-based
Rattus norvegicus [16] = experiment: Neuroprotective activity in Sprague-Dawley rat model of spinal cord injury assessed as decrease in activated caspase-9 level at 200 mg/kg, ip; assay type: functional, organism-based
Rattus norvegicus [17] = experiment: Neuroprotective activity in Sprague-Dawley rat model of spinal cord injury assessed as decrease in activated caspase-9 level at 200 mg/kg, ip in presence of 25 umol/kg of HO-1 inhibitor ZnPP; assay type: functional, organism-based
Rattus norvegicus [18] = experiment: Neuroprotective activity in Sprague-Dawley rat model of spinal cord injury assessed as decrease in activated caspase-9 level at 200 mg/kg, ip in presence of Akt inhibitor LY294002; assay type: functional, organism-based
Rattus norvegicus [19] = experiment: Neuroprotective activity in Sprague-Dawley rat model of spinal cord injury assessed as decrease in thiobarbituric acid reactive substances level at 200 mg/kg, ip by malondialdehyde assay; assay type: functional, organism-based
Rattus norvegicus [20] = experiment: Neuroprotective activity in Sprague-Dawley rat model of spinal cord injury assessed as decrease in thiobarbituric acid reactive substances level at 200 mg/kg, ip by malondialdehyde assay in presence of 25 umol/kg of HO-1 inhibitor ZnPP; assay type: functional, organism-based
Rattus norvegicus [21] = experiment: Neuroprotective activity in Sprague-Dawley rat model of spinal cord injury assessed as decrease in thiobarbituric acid reactive substances level at 200 mg/kg, ip by malondialdehyde assay in presence of Akt inhibitor LY294002; assay type: functional, organism-based
Rattus norvegicus [22] = experiment: Neuroprotective activity in Sprague-Dawley rat model of spinal cord injury assessed as increase in glutathione level at 200 mg/kg, ip by reduced glutathione assay; assay type: functional, organism-based
Rattus norvegicus [23] = experiment: Neuroprotective activity in Sprague-Dawley rat model of spinal cord injury assessed as increase in glutathione level at 200 mg/kg, ip by reduced glutathione assay in presence of 25 umol/kg of HO-1 inhibitor ZnPP; assay type: functional, organism-based
Rattus norvegicus [24] = experiment: Neuroprotective activity in Sprague-Dawley rat model of spinal cord injury assessed as increase in glutathione level at 200 mg/kg, ip by reduced glutathione assay in presence of Akt inhibitor LY294002; assay type: functional, organism-based
Rattus norvegicus [25] = experiment: Neuroprotective activity in Sprague-Dawley rat model of spinal cord injury assessed as increase in superoxide dismutase activity at 200 mg/kg, ip; assay type: functional, organism-based
Rattus norvegicus [26] = experiment: Neuroprotective activity in Sprague-Dawley rat model of spinal cord injury assessed as increase in superoxide dismutase activity at 200 mg/kg, ip in presence of 25 umol/kg of HO-1 inhibitor ZnPP; assay type: functional, organism-based
Rattus norvegicus [27] = experiment: Neuroprotective activity in Sprague-Dawley rat model of spinal cord injury assessed as increase in superoxide dismutase activity at 200 mg/kg, ip in presence of Akt inhibitor LY294002; assay type: functional, organism-based
Rattus norvegicus [28] = experiment: Neuroprotective activity in Sprague-Dawley rat model of spinal cord injury assessed as increase in HO-1 mRNA expression at 200 mg/kg, ip by real time PCR method; assay type: functional, organism-based
Rattus norvegicus [29] = experiment: Neuroprotective activity in Sprague-Dawley rat model of spinal cord injury assessed as increase in HO-1 mRNA expression at 200 mg/kg, ip by real time PCR method in presence of 25 umol/kg of HO-1 inhibitor ZnPP; assay type: functional, organism-based
Rattus norvegicus [30] = experiment: Neuroprotective activity in Sprague-Dawley rat model of spinal cord injury assessed as increase in HO-1 mRNA expression at 200 mg/kg, ip by real time PCR method in presence of Akt inhibitor LY294002; assay type: functional, organism-based
Rattus norvegicus [31] = experiment: Neuroprotective activity in Sprague-Dawley rat model of spinal cord injury assessed as increase in Akt phosphorylation at 200 mg/kg, ip by Western blot analysis; assay type: functional, organism-based
Rattus norvegicus [32] = experiment: Neuroprotective activity in Sprague-Dawley rat model of spinal cord injury assessed as increase in Akt phosphorylation at 200 mg/kg, ip by western blot analysis in presence of 25 umol/kg of HO-1 inhibitor ZnPP; assay type: functional, organism-based
Rattus norvegicus [33] = experiment: Neuroprotective activity in Sprague-Dawley rat model of spinal cord injury assessed as increase in Akt phosphorylation at 200 mg/kg, ip by western blot analysis in presence of Akt inhibitor LY294002; assay type: functional, organism-based
Rattus norvegicus [34] = experiment: Neuroprotective activity in Sprague-Dawley rat model of spinal cord injury assessed as increase in Nrf2 mRNA expression at 200 mg/kg, ip by real time PCR method; assay type: functional, organism-based
Rattus norvegicus [35] = experiment: Neuroprotective activity in Sprague-Dawley rat model of spinal cord injury assessed as increase in Nrf2 mRNA expression at 200 mg/kg, ip by real time PCR method in presence of 25 umol/kg of HO-1 inhibitor ZnPP; assay type: functional, organism-based
Rattus norvegicus [36] = experiment: Neuroprotective activity in Sprague-Dawley rat model of spinal cord injury assessed as increase in Nrf2 mRNA expression at 200 mg/kg, ip by real time PCR method in presence of Akt inhibitor LY294002; assay type: functional, organism-based
Rattus norvegicus [37] = experiment: Induction of Nrf2 binding to HO-1 promoter in Sprague-Dawley rat model of spinal cord injury at 200 mg/kg, ip by chromatin immunoprecipitation assay; assay type: functional, organism-based
Rattus norvegicus [38] = experiment: Induction of Nrf2 binding to HO-1 promoter in Sprague-Dawley rat model of spinal cord injury at 200 mg/kg, ip by chromatin immunoprecipitation assay in presence of 25 umol/kg of HO-1 inhibitor ZnPP; assay type: functional, organism-based
Rattus norvegicus [39] = experiment: Induction of Nrf2 binding to HO-1 promoter in Sprague-Dawley rat model of spinal cord injury at 200 mg/kg, ip by chromatin immunoprecipitation assay in presence of Akt inhibitor LY294002; assay type: functional, organism-based
Rattus norvegicus [40] = experiment: Neuroprotective activity in Sprague-Dawley rat model of spinal cord injury assessed as locomotor function recovery at 200 mg/kg, ip measured during 3 to 28 days; assay type: functional, organism-based
Rattus norvegicus [41] = experiment: Neuroprotective activity in Sprague-Dawley rat model of spinal cord injury assessed as decrease in Evans blue leakage in spinal cord tissue at 200 mg/kg, ip after 24 hrs in presence of 25 umol/kg of HO-1 inhibitor ZnPP; assay type: functional, organism-based
Rattus norvegicus [42] = experiment: Neuroprotective activity in Sprague-Dawley rat model of spinal cord injury assessed as locomotor function recovery at 200 mg/kg, ip measured during 3 to 28 days in presence of 25 umol/kg of HO-1 inhibitor ZnPP; assay type: functional, organism-based
Rattus norvegicus [43] = experiment: Neuroprotective activity in Sprague-Dawley rat model of spinal cord injury assessed as locomotor function recovery at 200 mg/kg, ip measured during 3 to 28 days in presence of Akt inhibitor LY294002; assay type: functional, organism-based
Rattus norvegicus [44] = experiment: Neuroprotective activity in Sprague-Dawley rat model of spinal cord injury assessed as decrease in Evans blue leakage in spinal cord tissue at 200 mg/kg, ip after 24 hrs; assay type: functional, organism-based
Rattus norvegicus [45] = experiment: Neuroprotective activity in Sprague-Dawley rat model of spinal cord injury assessed as decrease in Evans blue leakage in spinal cord tissue at 200 mg/kg, ip after 24 hrs in presence of Akt inhibitor LY294002; assay type: functional, organism-based
Rattus norvegicus [46] = experiment: Neuroprotective activity in Sprague-Dawley rat model of spinal cord injury assessed as decrease in Evans blue leakage in spinal cord tissue at 200 mg/kg, ip after 48 hrs; assay type: functional, organism-based
Rattus norvegicus [47] = experiment: Neuroprotective activity in Sprague-Dawley rat model of spinal cord injury assessed as decrease in Evans blue leakage in spinal cord tissue at 200 mg/kg, ip after 48 hrs in presence of 25 umol/kg of HO-1 inhibitor ZnPP; assay type: functional, organism-based
Rattus norvegicus [48] = experiment: Neuroprotective activity in Sprague-Dawley rat model of spinal cord injury assessed as decrease in Evans blue leakage in spinal cord tissue at 200 mg/kg, ip after 48 hrs in presence of Akt inhibitor LY294002; assay type: functional, organism-based

Measured: Activity

Cc1nc(C)c(C)nc1C [LIGUSTRAZINE]
16.2%: Rattus norvegicus [12]
8%: Rattus norvegicus [10]
15%: Rattus norvegicus [11]
active: Rattus norvegicus [1] | Rattus norvegicus [4] | Rattus norvegicus [7] | Rattus norvegicus [13] | Rattus norvegicus [16] | Rattus norvegicus [19] | Rattus norvegicus [22] | Rattus norvegicus [25] | Rattus norvegicus [28] | Rattus norvegicus [31] | Rattus norvegicus [32] | Rattus norvegicus [33] | Rattus norvegicus [34] | Rattus norvegicus [35] | Rattus norvegicus [37] | Rattus norvegicus [38] | Rattus norvegicus [40] | Rattus norvegicus [44] | Rattus norvegicus [46]
inactive: all other assays above
